From patent US9205137B2, “Maturation of gastrointestinal tract” (ANARA AB, priority 2010, dated 2015)
Marks after values point to notes of the source that are not given here.

Key:
suckling rats [1] = assay: Set I: brush-border disaccharidase activity in proximal SI, Example 3; type: in vivo, Rattus norvegicus; conditions: proximal part of SI, in words (FIG. 5)
Protocol: The proximal samples of the SI were de-frozen and weighted and then homogenized with 9 parts of 0.9% NaCl (9 w/v). The homogenates (50 μl diluted samples) were incubated with the appropriate disaccharide (50 μl of 0.056M sucrose, maltose and lactose) for 1 hour at 37° C. After this, the liberated glucose was determined by adding glucose oxidase reagent (Sigma Chemicals), and incubated for 30 minutes. Then samples were transferred into the 96-well plate in triplication and the absorbance was measured at 450 nm. To measure the protein contents of the homogenates, Lowry method, was used, where BSA (Bovine Serum Albumin) was used as a standard. The results are presented as specific activity units per mg of protein (u/mg).

suckling 14 d old rats = assay: Exocrine pancreatic function (trypsin activity in pancreatic homogenates), Example 6; type: in vivo, rat; conditions: 3 d oral gavage, in words (FIG. 10)
Description: Treated groups were compared to control, *p<0.05.
The same rat model as in Experiments 3-5 was used.
The effect of microbial-derived enzymes with pancreatic activity: protease, lipase, amylase and their mixture on exocrine pancreatic secretion after 3 d of oral gavage to suckling 14 d old rats (see experiment 3-5 above). Treated groups were compared to control, *p<0.05

suckling rats [2] = assay: Papain vs microbial protease: macromolecule absorption (BSA, BIgG in plasma), Example 8; type: in vivo, Rattus norvegicus; conditions: day 17, 3 hours after feeding, in words (FIG. 14)
Description: (§1) The litter size for each dam was limited to 12 or 13 pups, to reduce variability.
(§2) Suckling pups were divided into 3 groups depending on the treatments; microbial protease as a positive control, water as negative control and enzyme from papaya fruit (papain) (in total; protease=7, papain=8, control=7). The enzymes are available in the market in form of powders and were resolved in distilled water prior to stomach feeding during 14-16 d of age. The administered dose for each enzyme was 10000 USP/animal. The volume of administered enzymes and water (for control groups) was 0.01 ml/g b.wt. Prior to the feeding procedure, the pups were weighed. […] Three hours later, the pups were anaesthetized and organs were dissected out for analyses.

suckling rats [3] = assay: Set I: body weight, GI and lymphoid organ weights, stomach pH after individual enzymes or mixture, Example 3
Protocol: All experiments were performed in young suckling rats by feeding them from 14 days of age via stomach tube for 3 continuous days (ones a day). One day after last treatment rats were euthanized and plasma and organs proceeded to study structural and functional changes of gastrointestinal system.
The pups were kept with their dam until dissection day (day 17).
In this set suckling pups were divided into five groups; control (water) amylase 10 000 USP/rat/day, lipase 4 000 USP/rat/day, protease 15 000 USP/rat/day, and mixture of these enzyme with corresponding activities per rat and day. This study was evaluating the effects of different pancreatic-like enzymes on the gut maturation and functioning and had 3 individual litters; n=12, n=10 and n=13, totally n=7 pups per each group. Each of the enzymes (Amylase, Protease and Lipase) (Sigma Aldrich) was available in the powder form and was resolved in distilled water prior to stomach feeding during days 14, 15 and 16. The volume of administered enzymes and distilled water (for control groups) was 0.01 ml/g BW. Each time, prior to the feeding procedure, the pups were weighed. […] Then 3 hours later, the pups were sedated with CO2 and anaesthetized by subcutaneous injection with a mixture of ketamine (Ketalar®, Pfizer, New York, USA, NaCl and azaperone (Stresnil®, Janssen Pharmaceutica, Beerse, Belgium), 0.01 ml/g BW. After opening the abdomen of the rats, 1 ml of blood was collected from heart by using syringes containing protease inhibitor and EDTA (50 μl) as anticoagulant and was transferred into ice-chilled tubes. After this, the pancreas was immediately dissected and rinsed with cold 0.9% NaCl, weighted and stored at −70 C. The SI was removed and its length was measured then divided into two halves, proximal and distal. Each segment was flushed out with cold 0.9% NaCl to clean the lumen and was then weighed separately. […] The stomach was removed and its content was collected into the tube (for measuring its pH) and frozen. Then cecum was dissected out, opened, rinse and weighed as well as liver and lymphoid organs spleen and thymus were dissected and weighted.
The contents of the stomach were de-frozen and then resolved with 1 ml of cold 0.9% NaCl. After resolving, they were centrifuged and the pH was measured in the supernatant using pH-meter.
All data are presented as mean±standard deviation (SD). Statistical comparisons between each group and control group were performed using the t-test. Results were considered as significant when P<0.05.

suckling rats [4] = assay: Papain vs microbial protease: body and organ weight, Example 8; type: in vivo, Rattus norvegicus
Description: as §1, §2

suckling rats [5] = assay: Papain vs microbial protease: intestinal disaccharidase activity in proximal SI, Example 8; type: in vivo, Rattus norvegicus; conditions: proximal part of SI, in words (FIG. 13)
Description: as §1, §2
The activities of the brush-border enzymes lactase, maltase and sucrase were analyzed in the proximal part of the SI in groups treated with papain and protease.

suckling rats [6] = assay: Set II: different doses of protease, organ weights, stomach pH and body weight, Example 4; type: in vivo, Rattus norvegicus; parameters: mean body weight Bwt 1/Day 14 / mean body weight Bwt2/Day 15 / mean body weight Bwt3/Day 16 / mean body weight Bwt4/Day 17: unit not given here; conditions: for Cecum / Distal SI / Liver / Pancreas / Proximal SI / SI length / Spleen / Stomach / Thymus: day 17; for pH: stomach contents
Protocol: The second study was about comparing the effect of different doses of protease (15000 USP, 7500 USP, 3750 USP and […]) on the development of the GI tract with control. In this experiment 2 litters of pups were used (n=13 and n=12). Pups were divided into five groups to fed with different doses of protease; 15000 USP (n=3), P7500 USP (n=6), P 3750 USP (n=6), P 1875 USP (n=5) and water as a control (n=5). The feeding was during 3 continuous days, once a day. 24 hours after the last feeding, on day 17, similar dissection steps and analytical procedures as mentioned for the previous experiment were followed.
All data are presented as mean±standard deviation (SD). […] Results were considered as significant when P<0.05.

[7] = 10000 USP/animal, days 14-16, day 17

Proteinase from Aspergillus melleus [Protease]
lactase activity (suckling rats [1]): decreased | maltase activity (suckling rats [1]): significantly increased | sucrase activity (suckling rats [1]): significantly increased | stimulation of the pancreatic function (suckling 14 d old rats): most efficient enzyme for stimulation of the pancreatic function | uptake of macromolecules, BIgG absorption (suckling rats [2]): significantly lower | Body weight (suckling rats [3]; 3 days treatment, day 17): 33.6 ± 1.9 gr | Cecum (suckling rats [3]; 3 days treatment, day 17): 4.0 ± 0.5 mg/g BW | Distal SI (suckling rats [3]; 3 days treatment, day 17): 17.8 ± 2.5 mg/g BW | Liver (suckling rats [3]; 3 days treatment, day 17): 35.8 ± 2.5 mg/g BW | Pancreas (suckling rats [3]; 3 days treatment, day 17): 4.3 ± 0.4 mg/g BW | Proximal SI (suckling rats [3]; 3 days treatment, day 17): 24.7 ± 3.5 mg/g BW | SI length (suckling rats [3]; 3 days treatment, day 17): 1.7 ± 0.1 cm/g BW | Spleen (suckling rats [3]; 3 days treatment, day 17): 3.4 ± 0.5 mg/g BW | Stomach (suckling rats [3]; 3 days treatment, day 17): 7.2 ± 0.7 mg/g BW | Thymus (suckling rats [3]; 3 days treatment, day 17): 3.96 ± 0.4 mg/g BW | diarrhoea (suckling rats [3]; after receiving the first dose): diarrhoea observed after receiving the first dose | pH (suckling rats [3]; stomach contents, day 17): 3.5 ± 0.3 | Body weight (suckling rats [4]; [7]): 34.8 ± 3.31 gr | Cecum (suckling rats [4]; [7]): 2.89 ± 0.47 mg/g BW | Distal SI (suckling rats [4]; [7]): 15.2 ± 2.3 mg/g BW | Liver (suckling rats [4]; [7]): 32.22 ± 1.37 mg/g BW | Pncrease (suckling rats [4]; [7]): 3.87 ± 0.34 mg/g BW | Proxima SI (suckling rats [4]; [7]): 20.24 ± 2.37 mg/g BW | SI length (suckling rats [4]; [7]): 1.59 ± 0.18 cm/g BW | Spleen (suckling rats [4]; [7]): 3.18 ± 0.23 mg/g BW | Stomach (suckling rats [4]; [7]): 6.71 ± 0.41 mg/g BW | Thymus (suckling rats [4]; [7]): 4.95 ± 0.93 mg/g BW | effect on body growth (suckling rats [4]; dose 10 000 USP, days 14 to 17, in words (FIG. 12)): No effect | activity of maltase compared to control (suckling rats [5]): significantly increased | activity of sucrase compared to control (suckling rats [5]): significantly increased | diarrhoea (suckling rats [6]; highest dose of protease, after first dose on day 14): signs of diarrhoea | mean body weight Bwt 1/Day 14 (suckling rats [6]; protease 15 000USP): 28.7 | mean body weight Bwt2/Day 15 (suckling rats [6]; protease 15 000USP): 27.4* | mean body weight Bwt3/Day 16 (suckling rats [6]; protease 15 000USP): 28.2* | mean body weight Bwt4/Day 17 (suckling rats [6]; protease 15 000USP): 30.1* | mean body weight Bwt 1/Day 14 (suckling rats [6]; protease 1875USP): 28.2 | mean body weight Bwt2/Day 15 (suckling rats [6]; protease 1875USP): 31.7 | mean body weight Bwt3/Day 16 (suckling rats [6]; protease 1875USP): 32.9 | mean body weight Bwt4/Day 17 (suckling rats [6]; protease 1875USP): 34.8 | Cecum (suckling rats [6]; protease 1875 USP): 2.3 ± 0.2 mg/g BW | Distal SI (suckling rats [6]; protease 1875 USP): 13.3 ± 1.4 mg/g BW | Liver (suckling rats [6]; protease 1875 USP): 31.7 ± 1.1 mg/g BW | Pancreas (suckling rats [6]; protease 1875 USP): 3.0 ± 0.4 mg/g BW | Proximal SI (suckling rats [6]; protease 1875 USP): 16.4 ± 0.8 mg/g BW | SI length (suckling rats [6]; protease 1875 USP): 1.5 ± 0.0 cm/g BW | Spleen (suckling rats [6]; protease 1875 USP): 3.3 ± 0.4 mg/g BW | Stomach (suckling rats [6]; protease 1875 USP): 6.1 ± 0.3 mg/g BW | Thymus (suckling rats [6]; protease 1875 USP): 5.6 ± 0.3 mg/g BW | mean body weight Bwt 1/Day 14 (suckling rats [6]; protease 3750USP): 28.5 | mean body weight Bwt2/Day 15 (suckling rats [6]; protease 3750USP): 30.5 | mean body weight Bwt3/Day 16 (suckling rats [6]; protease 3750USP): 32.3 | mean body weight Bwt4/Day 17 (suckling rats [6]; protease 3750USP): 33.3 | Cecum (suckling rats [6]; protease 3750 USP): 2.8 ± 0.3 mg/g BW | Distal SI (suckling rats [6]; protease 3750 USP): 14.7 ± 1.1 mg/g BW | Liver (suckling rats [6]; protease 3750 USP): 32.8 ± 1.7 mg/g BW | Pancreas (suckling rats [6]; protease 3750 USP): 3.2 ± 0.3 mg/g BW | Proximal SI (suckling rats [6]; protease 3750 USP): 17.6 ± 1.5 mg/g BW | SI length (suckling rats [6]; protease 3750 USP): 1.5 ± 0.1 cm/g BW | Spleen (suckling rats [6]; protease 3750 USP): 3.3 ± 0.5 mg/g BW | Stomach (suckling rats [6]; protease 3750 USP): 6.4 ± 0.3 mg/g BW | Thymus (suckling rats [6]; protease 3750 USP): 5.6 ± 0.8 mg/g BW | mean body weight Bwt 1/Day 14 (suckling rats [6]; protease 7500USP): 28.9 | mean body weight Bwt2/Day 15 (suckling rats [6]; protease 7500USP): 30.6 | mean body weight Bwt3/Day 16 (suckling rats [6]; protease 7500USP): 32.2 | mean body weight Bwt4/Day 17 (suckling rats [6]; protease 7500USP): 33.6 | Cecum (suckling rats [6]; protease 7500 USP): 3.0 ± 0.2 mg/g BW | Distal SI (suckling rats [6]; protease 7500 USP): 15.4 ± 1.7 mg/g BW | Liver (suckling rats [6]; protease 7500 USP): 33.0 ± 1.6 mg/g BW | Pancreas (suckling rats [6]; protease 7500 USP): 3.4 ± 0.4 mg/g BW | Proximal SI (suckling rats [6]; protease 7500 USP): 19.3 ± 2.0 mg/g BW | SI length (suckling rats [6]; protease 7500 USP): 1.8 ± 0.1 cm/g BW | Spleen (suckling rats [6]; protease 7500 USP): 3.1 ± 0.1 mg/g BW | Stomach (suckling rats [6]; protease 7500 USP): 6.3 ± 0.4 mg/g BW | Thymus (suckling rats [6]; protease 7500 USP): 4.8 ± 0.6 mg/g BW | Cecum (suckling rats [6]; protease 15000 USP): 4.2 ± 0.1 mg/g BW | Distal SI (suckling rats [6]; protease 15000 USP): 18.6 ± 1.0 mg/g BW | Liver (suckling rats [6]; protease 15000 USP): 38.5 ± 2.4 mg/g BW | Pancreas (suckling rats [6]; protease 15000 USP): 4.8 ± 0.2 mg/g BW | Proximal SI (suckling rats [6]; protease 15000 USP): 28.2 ± 1.7 mg/g BW | SI length (suckling rats [6]; protease 15000 USP): 1.8 ± 0.1 cm/g BW | Spleen (suckling rats [6]; protease 15000 USP): 3.0 ± 0.3 mg/g BW | Stomach (suckling rats [6]; protease 15000 USP): 6.9 ± 0.7 mg/g BW | Thymus (suckling rats [6]; protease 15000 USP): 3.0 ± 0.2 mg/g BW | pH (suckling rats [6]; protease 1875 USP): 4.1 ± 0.2 | pH (suckling rats [6]; protease 3750 USP): 4.1 ± 0.4 | pH (suckling rats [6]; protease 7500 USP): 3.9 ± 0.7 | pH (suckling rats [6]; protease 15000 USP): 3.4 ± 0.8
